Experiments:
[1] = biological target: T1, Papain (Carica papaya, UniProt P00784); experiment: Papain assay, casein substrate; assay type: biochemical; conditions: 0.5 mg/mL casein
T1 construct: purchased Sigma P3125; host or cells: papaya latex
T1 sequence (P00784 134-345): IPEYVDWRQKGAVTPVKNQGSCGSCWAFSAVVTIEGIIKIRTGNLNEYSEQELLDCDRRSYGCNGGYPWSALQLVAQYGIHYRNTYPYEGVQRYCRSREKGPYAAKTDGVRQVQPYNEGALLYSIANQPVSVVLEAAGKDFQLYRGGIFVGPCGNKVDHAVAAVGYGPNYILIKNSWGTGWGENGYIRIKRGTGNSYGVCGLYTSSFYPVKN
Procedure: (§1) Selectivity of α-substituted Hydrazides: Calpain I and II were assayed as described in Example 1. One to 2 ng papain (papaya latex, Sigma, P3125), 1.25 μg trypsin (bovine pancreas, Sigma, T8003), 5 μg thermolysin (Bacillus thermoproteolyticus, Sigma, P1512) were assayed using 0.5 mg/mL casein as substrate in the microplate format (250 μL reaction volume), essentially a described by Buroker-Kilgore, M. and Wang K K W, Anal Biochem 1993;208: 387-392. Cathepsin B (0.002 unit, bovine spleen) was assayed with 50 mM MES (pH 5.5), 100 μM carbobenzoxy-Arg-Arg-4-methoxy-beta-naphthlamide (Cbz-Arg-Arg-MNA), inhibitor, and 2 mM DTT in 200 μL for 60 minutes at room temperature. Fifty-microliter aliquots were transferred to a fluorescence-compatible plate and then read with a Perkin-Elmer fluorometer LS-50B (excitation 340 nm and emission 425 nm). Calcineurin (bovine brain, Sigma) (5 μg, 0.8 unit) was assayed with 10 mM p-nitrophenyl phosphate in 1 mM DTT, 1 mM CaCl2, 1 mM MnCl2, […] calmodulin (CaM, if added), and 50 mM Tris-HCl (pH 7.4) at 25° C. for 60 minutes or more. Production of p-nitrophenol was monitored at 405 nm. Inhibition of these proteases are presented as IC50.

[2] = biological target: T2, Human Calpain I (Homo sapiens, UniProt P07384); experiment: Calpain I activity, casein substrate, Coomassie microplate assay; assay type: biochemical
T2 construct: Calpain I was purified from human erythrocytes; from tissue; host or cells: human erythrocytes
T2 sequence (P07384 1-714): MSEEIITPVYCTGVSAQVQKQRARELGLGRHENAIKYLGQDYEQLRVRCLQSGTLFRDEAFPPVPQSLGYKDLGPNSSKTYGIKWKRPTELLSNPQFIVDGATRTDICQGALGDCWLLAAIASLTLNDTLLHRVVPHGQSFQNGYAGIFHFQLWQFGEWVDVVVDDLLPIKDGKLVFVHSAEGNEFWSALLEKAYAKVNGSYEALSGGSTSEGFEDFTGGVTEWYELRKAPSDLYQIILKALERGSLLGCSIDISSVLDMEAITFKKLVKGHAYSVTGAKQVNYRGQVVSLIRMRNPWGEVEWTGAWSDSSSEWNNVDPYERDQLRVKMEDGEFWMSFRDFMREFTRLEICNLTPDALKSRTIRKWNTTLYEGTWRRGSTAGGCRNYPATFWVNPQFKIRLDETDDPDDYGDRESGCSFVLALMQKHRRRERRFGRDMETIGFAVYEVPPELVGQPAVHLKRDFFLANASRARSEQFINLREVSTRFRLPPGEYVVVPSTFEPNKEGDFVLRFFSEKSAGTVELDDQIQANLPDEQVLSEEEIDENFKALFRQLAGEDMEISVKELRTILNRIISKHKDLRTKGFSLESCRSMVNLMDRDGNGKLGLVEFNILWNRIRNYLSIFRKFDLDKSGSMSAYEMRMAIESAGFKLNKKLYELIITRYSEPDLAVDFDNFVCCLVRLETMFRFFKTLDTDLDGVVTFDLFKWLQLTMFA
T2 sequence (P04632 1-268 partner): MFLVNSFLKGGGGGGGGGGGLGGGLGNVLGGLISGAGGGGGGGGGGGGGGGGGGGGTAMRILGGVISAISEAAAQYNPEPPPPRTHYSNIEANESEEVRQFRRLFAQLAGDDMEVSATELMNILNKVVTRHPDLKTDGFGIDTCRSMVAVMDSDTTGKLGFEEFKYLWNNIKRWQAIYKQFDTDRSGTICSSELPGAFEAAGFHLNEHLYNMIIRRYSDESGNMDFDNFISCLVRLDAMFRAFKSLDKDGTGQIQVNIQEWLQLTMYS
Procedure: Assay of calpain activity: Calpain I was purified from human erythrocytes as described by Wang K K W, Roufogalis B D, and Villalobo A, Arch Biochem Biophys 1988;267: 317-327. Calpain activity was assayed in a 96-well microplate format (Buroker-Kilgore M and Wang K K W, Anal Bio Chem 1993;208: 387-392). In 250 μL of reaction mixture, substrate casein (0.5 mg/mL) was incubated with 0.01 unit (80-120 ng) calpain I, 20 mM dithiothreitol (DTT), 50 mM Tris-HCl (pH 7.4 at 25° C.) and 4 mM CaCl2 at 25° C. for 60 minutes. Two 100-μL aliquots were taken for Coomassie blue G250 binding analysis to quantify the remaining casein.
Compound concentrations that cause 50% inhibition (IC50) are as shown (Table I). The second rate of inactivation of calpain I for 2 compounds are also shown.
as §1

[3] = tested on: Spectrin Breakdown in Human Leukemic Molt-4 cells; experiment: Cell-based calpain assay: spectrin breakdown in Molt-4 cells treated with calcium ionophore A23187; conditions: 1 hour preincubation, 15 μM A23187, 90 minutes, read-out: IC50 for inhibition of spectrin breakdown (145 kD fragment formation)
Procedure: Calpain inhibitor was added to the wells if desired and preincubated for 1 hour. […] The cells were then lysed with 2% (w/v) SDS, 5 mM EGTA, 5 mM EDTA, 150 mM NaCl, 0.5 mM PMSF, 10 μg/mL AEBSF, 5 μg/mL leupeptin, 10 μg/mL pepstatin, 10 μg/mL TLCK, 10 μg/mL TPCK, and 20 mM Tris-HCl (pH 7.4) at room temperature for 5 to 10 minutes. One hundred microliters of 100% (w/v) TCA was added and total protein precipitate was collected by microcentrifugation. The final pellets were neutralized with Tris base. Protein samples (50 μg) were run on SDS-PAGE with the Tris-glycine running buffer system and transferred onto a PVDF membrane. The blots were probed with an anti-spectrin (nonerythroid) antibody and a second antibody with alkaline phosphatase conjugate. The blots were developed with nitro blue tetrazolium and 5-bromo-4-chloro-3-indolyl-phosphate.

[4] = biological target: T3, Thermolysin (Bacillus thermoproteolyticus, UniProt P00800); experiment: Thermolysin assay, casein substrate; assay type: biochemical
T3 construct: purchased Sigma P1512; host or cells: Bacillus thermoproteolyticus
T3 sequence (P00800 233-548): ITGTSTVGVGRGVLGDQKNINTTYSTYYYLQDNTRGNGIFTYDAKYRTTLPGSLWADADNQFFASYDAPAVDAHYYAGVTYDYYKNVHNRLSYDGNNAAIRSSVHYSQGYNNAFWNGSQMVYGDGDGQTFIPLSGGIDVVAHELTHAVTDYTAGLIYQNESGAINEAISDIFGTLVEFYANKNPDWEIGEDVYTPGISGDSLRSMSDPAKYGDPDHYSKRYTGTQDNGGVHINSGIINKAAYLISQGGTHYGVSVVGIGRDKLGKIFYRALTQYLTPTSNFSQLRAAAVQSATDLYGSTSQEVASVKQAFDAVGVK
Procedure: as §1

O=C(CCl)NN=c1[nH]c2ccccc2n(-c2ccccc2)c1=O [Example 5, 2-Chloro-acetic acid (3-oxo-4-phenyl-3,4-dihydro-1H-quinoxalin-2-ylidene)-hydrazide]
IC50 [1]: 5.6 µM | Ki/[I] Calpain I (second rate of inactivation) [2]: 109 M⁻¹ s⁻¹ | IC50 ([2]; casein 0.5 mg/mL, pH 7.4, 25° C., 60 minutes (Table I)): 364 nM | IC50 [3]: 25 µM | IC50 [4]: > 500 µM

Source: patent US5679680A, “α-substituted hydrazides having calpain inhibitory activity” (Warner-Lambert Company, priority 1995, dated 1997)
